For experiment [1], the system named is HCC1806. Briefly: Inhibition of RSK in human HCC1806 cells assessed as reduction in YB-1 phosphorylation at Ser102 residue at 5 uM incubated for 12 hrs by western blot analysis. The class given is cell-based.
Experiment [2] concerns HCC1806. Briefly: Anti-tumor activity against human HCC1806 cells assessed as inhibition of cell proliferation. The experiment is classed as functional, cell-based.

Active and inactive are the calls of the source. No cut-off for these calls is given here.

For `CN1CCN(c2ccc(-c3ccncc3-c3cc(F)c(O)c(F)c3)cc2)CC1`, the inhibition entry in the experiment with HCC1806 [1] is “Active”. Besides, the outcome in the experiment on HCC1806 [2] was Active. Turning to `O=Cc1ccc(-c2ccncc2-c2ccc(OCc3ccccc3)c(OCc3ccccc3)c2)cc1`, the inhibition result in the experiment with HCC1806 [1] was “Active”. For `Cc1cc(C)cc(-c2ccncc2-c2ccc(O)c(O)c2)c1`, the inhibition result in the experiment on HCC1806 [1] was “Active”. Take `Cc1ccc(-c2ccncc2-c2ccc(O)c(O)c2)c2ccccc12`: the inhibition result with HCC1806 [1] was “Active”. In addition, the outcome in the experiment on HCC1806 [2] was Active. On to `Clc1ccc(-c2ccncc2-c2ccc(OCc3ccccc3)c(NCc3ccccc3)c2)cc1`, for which, in the experiment with HCC1806 [1], the inhibition result was “Active”.

Values taken from ChEMBL document CHEMBL5143571, “Design, synthesis and anti-breast cancer evaluation of biaryl pyridine analogues as potent RSK inhibitors” (Bioorg Med Chem Lett, 2022).
